Experimental data: patent publication US20240132431A1, “METHOD FOR ALKYLATING ACIDIC FUNCTIONAL GROUP” (Chugai Seiyaku Kabushiki Kaisha, priority 2021, published 2024)

Target: T1, Bcl-2 protein (Recombinant Human Bcl-2 Protein) (Homo sapiens, UniProt P10415)
T1 construct: purchased Novus NBP2-34889
Experiment: Binding evaluation of mixture library compounds to Bcl-2 using AS-MS (affinity selection mass spectrometry)
Conditions: for ASMS ratio (%) n = 1 / ASMS ratio (%) n = 2: ASMS Ratio(%)=(A−C)/B×100; for ASMS ratio (%) n = 1: replicate n = 1; for ASMS ratio (%) n = 2: replicate n = 2
Outline: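 Readout is ASMS Ratio (%), (A−C)/B×100, from reversed-phase LC/MS of SEC-passed extracts, with protein-free unfiltered standard (B) and protein-free SEC blank (C). Recombinant human Bcl-2 at 20 μM final met ~1200 pooled compounds at […] each for 1 h, 23° C., dark, in Tris-HCl pH 7.4 buffer.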

[1] = AS-MS on the mixture of 1200 library compounds
[2] = AS-MS, mixture of 1200 compounds, Bcl-2

T1 sequence (P10415 whole entry): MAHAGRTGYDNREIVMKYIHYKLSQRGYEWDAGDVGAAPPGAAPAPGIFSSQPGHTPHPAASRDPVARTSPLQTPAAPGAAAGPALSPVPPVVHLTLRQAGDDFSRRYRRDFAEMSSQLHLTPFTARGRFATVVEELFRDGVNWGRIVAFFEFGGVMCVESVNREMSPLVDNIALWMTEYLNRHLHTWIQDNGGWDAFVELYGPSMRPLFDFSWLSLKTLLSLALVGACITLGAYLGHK

Row | Molecule | ASMS ratio (%) (n = 1) | ASMS ratio (%) (n = 2) | ASMS ratio (%) n = 1 (AS-MS, mixture library, Bcl-2) [%] | ASMS ratio (%) n = 2 (AS-MS, mixture library, Bcl-2) [%] | also measured
1 | CCOc1cncc(-c2cnn(-c3cc(C(=O)N4CCN(c5ccc(C(=O)N(C)CC67CC8CC(CC(C8)C6)C7)cc5)CC4)cc(C(F)(F)F)c3)c2)c1 [B3A044-01, N-(1-Adamantylmethyl)-4-[4-[3-[4-(5-ethoxypyridin-3-yl)pyrazol-1-yl]-5-(trifluoromethyl)benzoyl]piperazin-1-yl]-N-methylbenzamide] |  |  |  |  | ASMS ratio (%) n = 1 [1]: 12.3%; ASMS ratio (%) n = 2 [1]: −12.4%
2 | CCOc1cncc(-c2cc(OC)c(CN3CCN(c4ccc(C(=O)NS(C)(=O)=O)nn4)CC3)c(OC)c2)c1 [B2I086-01, 6-[4-[[4-(5-Ethoxypyridin-3-yl)-2,6-dimethoxyphenyl]methyl]piperazin-1-yl]-N-methylsulfonylpyridazine-3-carboxamide] | 0.0 | 0.0 |  |  | 
3 | CCOc1cncc(-c2cc(OC)c(CN3CCN(c4ccc(C(=O)NS(=O)(=O)CCC(F)(F)F)cc4)CC3)c(OC)c2)c1 [B2N060-01, 4-[4-[[4-(5-Ethoxypyridin-3-yl)-2,6-dimethoxyphenyl]methyl]piperazin-1-yl]-N-(3,3,3-trifluoropropylsulfonyl)benzamide] | 0.0 | 0.0 |  |  | 
4 | CCOc1cncc(-c2cc(CN3CCN(c4ccc(C(=O)NCC(F)(F)F)nn4)CC3)cc(OCC)c2)c1 [B1K082-01, 6-[4-[[3-Ethoxy-5-(5-ethoxypyridin-3-yl)phenyl]methyl]piperazin-1-yl]-N-(2,2,2-trifluoroethyl)pyridazine-3-carboxamide] |  |  |  |  | ASMS ratio (%) n = 1 [2]: 0.0%; ASMS ratio (%) n = 2 [2]: 0.0%
5 | CCOc1cccc(C#Cc2cncc(C(=O)N3CCN(c4ccc(C(=O)NS(C)(=O)=O)cc4)CC3)c2)c1 [B2I031-01, 4-[4-[5-[2-(3-Ethoxyphenyl)ethynyl]pyridine-3-carbonyl]piperazin-1-yl]-N-methylsulfonylbenzamide] |  |  | 0.0 | 0.0 | 
6 | CCOc1cncc(-c2cc(CN3CCN(c4ccc(C(=O)NS(=O)(=O)CC56CC7CC(CC(C7)C5)C6)nn4)CC3)cc(C(F)(F)F)c2)c1 [B2A088-01, N-(1-Adamantylmethylsulfonyl)-6-[4-[[3-(5-ethoxypyridin-3-yl)-5-(trifluoromethyl)phenyl]methyl]piperazin-1-yl]pyridazine-3-carboxamide] |  |  | 12.0 | 14.0 | 
7 | CCOc1cncc(-c2ccc(C(C)N3CCN(c4ccc(C(=O)N(CC)CC)cc4)CC3)c(F)c2)c1 (stereo not shown) [B4J100-01, 4-[4-[1-[4-(5-Ethoxypyridin-3-yl)-2-fluorophenyl]ethyl]piperazin-1-yl]-N,N-diethylbenzamide] |  |  | 0.0 | 0.0 | 
8 | CCOc1cncc(-c2cc(CN3CCN(c4ccc(C(=O)NS(C)(=O)=O)cc4)CC3)cc(OC(F)(F)F)c2)c1 [B2I064-01, 4-[4-[[3-(5-Ethoxypyridin-3-yl)-5-(trifluoromethoxy)phenyl]methyl]piperazin-1-yl]-N-methylsulfonylbenzamide] | 0.0 | 0.0 |  |  | 
9 | CCOc1cccc(-c2ccc(CN3CCN(c4ccc(C(=O)NCC(F)(F)F)cc4)CC3)c(CC)c2)c1 [B1K049-01, 4-[4-[[4-(3-Ethoxyphenyl)-2-ethylphenyl]methyl]piperazin-1-yl]-N-(2,2,2-trifluoroethyl)benzamide] |  |  |  |  | ASMS ratio (%) n = 1 [2]: −3.3%; ASMS ratio (%) n = 2 [2]: 1.5%
10 | 4-[4-[3-tert-Butyl-5-(3-ethoxyphenyl)benzoyl]piperazin-1-yl]-N-propylbenzamide [B1M062-01] |  |  |  |  | ASMS ratio (%) n = 1 [2]: 1.6%; ASMS ratio (%) n = 2 [2]: −1.7%
11 | CCOc1cncc(-c2csc(CN3CCN(c4ccc(C(=O)NS(=O)(=O)c5ccc(NCCSc6ccccc6)c(C(F)(F)F)c5)cc4)CC3)c2)c1 [B2R068-01, 4-[4-[[4-(5-Ethoxypyridin-3-yl)thiophen-2-yl]methyl]piperazin-1-yl]-N-[4-(2-phenylsulfanylethylamino)-3-(trifluoromethyl)phenyl]sulfonylbenzamide] | 0.0 | 0.0 |  |  | 
12 | CCOc1cccc(C#Cc2ccccc2CN2CCN(c3ccc(C(=O)NS(=O)(=O)CCC(F)(F)F)cc3)CC2)c1 [B2N069-01, 4-[4-[[2-[2-(3-Ethoxyphenyl)ethynyl]phenyl]methyl]piperazin-1-yl]-N-(3,3,3-trifluoropropylsulfonyl)benzamide] | −1.8 | −1.5 |  |  | 
13 | CCOc1cncc(-c2cnn(-c3cc(C(=O)N4CCN(c5ccc(C(=O)NS(=O)(=O)c6ccc(NCCSc7ccccc7)c([N+](=O)[O-])c6)cc5)CC4)cc(C(F)(F)F)c3)c2)c1 [B2Q044-01, 4-[4-[3-[4-(5-Ethoxypyridin-3-yl)pyrazol-1-yl]-5-(trifluoromethyl)benzoyl]piperazin-1-yl]-N-[3-nitro-4-(2-phenylsulfanylethylamino)phenyl]sulfonylbenzamide] |  |  | 11.0 | −1.3 | 
14 | CCOc1cncc(-c2ccc(CN3CCN(c4ccc(C(=O)NS(=O)(=O)C(C)(C)C)cc4)CC3)c(OC)c2)c1 [B2L054-01] | 0.0 | 0.0 |  |  | 
15 | CCOc1cccc(-c2ccc(CN3CCN(c4ccc(C(=O)NS(=O)(=O)CC56CC7CC(CC(C7)C5)C6)cc4)CC3)cc2F)c1 [B2A051-01] |  |  | −0.3 | 3.6 | 
16 | CCOc1cccc(-c2cc(OC)c(CN3CCN(c4ccc(C(=O)NS(=O)(=O)CCC(F)(F)F)cc4)CC3)c(OC)c2)c1 [B2N059-01, 4-[4-[[4-(3-Ethoxyphenyl)-2,6-dimethoxyphenyl]methyl]piperazin-1-yl]-N-(3,3,3-trifluoropropylsulfonyl)benzamide] | 0.0 | 0.0 |  |  | 
17 | CCOc1cncc(-c2cc(CN3CCN(c4ccc(C(=O)NS(=O)(=O)CC56CC7CC(CC(C7)C5)C6)cc4)CC3)cc(C(F)(F)F)c2)c1 [B2A062-01, N-(1-Adamantylmethylsulfonyl)-4-[4-[[3-(5-ethoxypyridin-3-yl)-5-(trifluoromethyl)phenyl]methyl]piperazin-1-yl]benzamide] |  |  | −5.2 | 3.6 | 
18 | CCOc1cncc(-c2ccc(C(=O)N3CCN(c4ccc(C(=O)NS(C)(=O)=O)nn4)CC3)cc2F)c1 [B2I006-01, 6-[4-[4-(5-Ethoxypyridin-3-yl)-3-fluorobenzoyl]piperazin-1-yl]-N-methylsulfonylpyridazine-3-carboxamide] |  |  | 0.0 | 0.0 | 
19 | CCOc1cncc(-c2cc(CN3CCN(c4ccc(C(=O)NCC(F)(F)F)nn4)CC3)cc(C(F)(F)F)c2)c1 [B1K088-01, 6-[4-[[3-(5-Ethoxypyridin-3-yl)-5-(trifluoromethyl)phenyl]methyl]piperazin-1-yl]-N-(2,2,2-trifluoroethyl)pyridazine-3-carboxamide] |  |  |  |  | ASMS ratio (%) n = 1 [2]: 2.2%; ASMS ratio (%) n = 2 [2]: −0.2%
20 | CCOc1cncc(-c2ccc(CN3CCN(c4ccc(C(=O)NS(=O)(=O)c5ccc(NCCSc6ccccc6)c(C(F)(F)F)c5)nn4)CC3)c(CC)c2)c1 [B2R076-01, 6-[4-[[4-(5-Ethoxypyridin-3-yl)-2-ethylphenyl]methyl]piperazin-1-yl]-N-[4-(2-phenylsulfanylethylamino)-3-(trifluoromethyl)phenyl]sulfonylpyridazine-3-carboxamide] | 3.9 | 19.7 |  |  | 
21 | CCOc1cccc(-c2ccc(CN3CCN(c4ccc(C(=O)NS(=O)(=O)C(C)(C)C)cc4)CC3)c(CC)c2)c1 [B2L049-01, N-tert-Butylsulfonyl-4-[4-[[4-(3-ethoxyphenyl)-2-ethylphenyl]methyl]piperazin-1-yl]benzamide] |  | 0.0 |  |  | 
22 | CCOc1cncc(-c2ccc(C(C)N3CCN(c4ccc(C(=O)NS(=O)(=O)c5ccc(NCCSc6ccccc6)c([N+](=O)[O-])c5)cc4)CC3)c(F)c2)c1 (stereo not shown) [B2Q100-01, 4-[4-[1-[4-(5-Ethoxypyridin-3-yl)-2-fluorophenyl]ethyl]piperazin-1-yl]-N-[3-nitro-4-(2-phenylsulfanylethylamino)phenyl]sulfonylbenzamide] |  |  | 0.0 | 10.7 | 
23 | CCOc1cccc(-c2cnn(-c3cc(C(=O)N4CCN(c5ccc(C(=O)NS(C)(=O)=O)nn5)CC4)cc(C(F)(F)F)c3)c2)c1 [B2I021-01, 6-[4-[3-[4-(3-Ethoxyphenyl)pyrazol-1-yl]-5-(trifluoromethyl)benzoyl]piperazin-1-yl]-N-methylsulfonylpyridazine-3-carboxamide] |  |  | 0.0 | 0.0 | 
24 | CCOc1cncc(-c2cc(OC)c(CN3CCN(c4ccc(C(=O)N(C)CC56CC7CC(CC(C7)C5)C6)cc4)CC3)c(OC)c2)c1 [B3A060-01, N-(1-Adamantylmethyl)-4-[4-[[4-(5-ethoxypyridin-3-yl)-2,6-dimethoxyphenyl]methyl]piperazin-1-yl]-N-methylbenzamide] |  |  |  |  | ASMS ratio (%) n = 1 [1]: 0.9%; ASMS ratio (%) n = 2 [1]: 0.0%
25 | CCOc1cccc(-c2ccc(CN3CCN(c4ccc(C(=O)NS(=O)(=O)C(C)(C)C)cc4)CC3)cc2F)c1 [B2L051-01, N-tert-Butylsulfonyl-4-[4-[[4-(3-ethoxyphenyl)-3-fluorophenyl]methyl]piperazin-1-yl]benzamide] | 0.0 | 0.0 |  |  | 
